No end group written: not given here.
Assays:
S. mutans UA159 and comD = experiment: Binding of fluorescently labeled peptides to S. mutans (fluorescence microscopy); parameters: species or system Streptococcus mutans; settings: fluorescently labeled peptide
Source text: To determine whether there was a region within the CSPC16 sequence that was responsible for S. mutans-specific binding, we synthesized a series of fluorescently labeled CSPC16 fragments, and analyzed their ability to bind to S. mutans. The following strategies were utilized in dissecting the CSPC16 sequence (Table 2): First, a series of fragments were constructed by generating deletions of 3 or 4 amino acids, from the N to C terminus, across the CSPC16 sequence (C16-1 to C16-5). Peptides lacking larger portions of the C or N termini of CSPC16 were also synthesized (C16-6 to C16-12). Additionally, peptides with Arg to […] (a positive to negative change in charge) (C16-4) or Phe to Gly substitutions (for a general decrease in hydrophobicity) (C16-3), as well as peptides representing a 4-residue Ala scan of the C16 sequence were constructed (C 16-15 to C16-18). […] These peptides include C16 (SEQ ID NO 1), C16-3 (SEQ ID NO 39), C16-4 (SEQ ID NO 40), C16-5 (SEQ ID NO 41), C16-6 (SEQ ID NO 42), C16-11 (SEQ ID NO 47), C16-12 (SEQ ID NO 5), C16-16 (SEQ ID NO 51), C16-17 (SEQ ID NO 52), and C16-18 (SEQ ID NO 53).
1.2 Fluorescent labeling of peptides and fluorescence microscopy. Aliquots of CSPC16 (SEQ ID NO 2), CSP-fragment peptides (Table 2), and C16G2 (SEQ ID NO 4) were labeled with carboxyfluorescein (Sigma) as described previously (Eckert et al., 2006). After peptide cleavage but prior to the bacterial labeling assay, fluorescence intensity per μM peptide was checked fluorimetrically (λex=488 nm, λem=520 nm VersaFluor, BioRad) and found to be relatively similar (data not shown). To evaluate the level of peptide binding to bacteria, streptococci from an overnight culture (OD600 of 0.7-1.0) were washed with phosphate buffered saline (1×PBS), diluted 1:2 into 1×PBS, and exposed to peptide (16 μM) for 5 min at 25° C. After incubation with peptide, unbound agent was removed from the bacteria by three cycles of centrifugation (5 min, 16,000×g) and resuspension in 1×PBS. Labeling of oral streptococci was evaluated using brightfield and fluorescence microscopy (Nikon E400) at a 40× magnification. The digital images utilized for the semi-quantitative binding assessment were acquired with the factory-supplied software (SPOT, Diagnostics).

S. gordonii = assay type: cell-based, S. gordonii Challis (DL1)
Protocol: 1.3 Determination of antimicrobial activity. The general antimicrobial activity of peptides against planktonic bacteria was determined by a MIC assay in TH broth (all oral streptococci) (Qi et al., 2005).
S. mutans, S. gordonii Challis (DL1), and S. sanguinis NY101 strains were grown in Todd Hewitt (TH, Fisher) broth medium at 37° C. under anaerobic conditions (80% N2, 10% CO2, and 10% H2). S. mutans strains UA159 (Ajdic et al., 2002), ATCC 25175, and T8 (Rogers, 1975), are wild-type clinical isolates, while comD is a knockout mutant that was constructed previously from the wild-type UA140 background (Qi et al., 2005). Luciferase expressing S. mutans strain JM11 was constructed from UA140 as described (Merritt et al., 2005). Exponentially growing bacterial cells were diluted to ˜1×10^5 cfu/mL in TH and placed into 96-well plates (Fisher). Peptides were then serially diluted and added to the bacteria.

[1] = system: S. mutans JM11 within a multi-species biofilm; experiment: Multi-species biofilm in saliva, luciferase readout of S. mutans JM11; assay type: cell-based, Streptococcus mutans; settings: 25 μM in saliva, 5 min exposure
Protocol: 1.6 Evaluation of antimicrobial activity against bacterial biofilm in saliva. For these experiments, we employed methods similar to those previously described (Bleher et al., 2003). A day prior to the assay, saliva was collected and pooled from 5 adult volunteers in the laboratory, diluted 1:4 in TH broth and centrifuged 2,000×g for 10 min. The supernatant was then filter sterilized (0.2 μm filter, Nunc) and stored at 4° C. A portion of pooled saliva was also diluted 1:2 in 1×PBS and processed as before. On the day of the assay, overnight cultures of JM11 and other oral streptococci were normalized to OD600 1.0 and ˜3×10^6 cfu/mL of each species was added to 10 mL of the TH-diluted saliva. […] At each time point, total biofilm growth was measured by reading absorbance at OD600, and the health of S. mutans within the population examined by relative luciferase expression (relative light unit, (RLU) production), as described previously (Merritt et al., 2005). […] RLU production was measured using a TD 20/20 luminometer (Turner Biosystems) and reported values were obtained from the average of 3 independent samples. […]
1.9 C16G2 can selectively eliminate S. mutans from a mixed species biofilm. […] The mixed-species biofilms were formed with saliva, and then peptides (25 μM) suspended in saliva were added for 5 min and removed, and the post-treatment growth of the biofilm was further monitored. […]

With “TFFRLFNRSFTQALGKGGGKNLRIIRKGIHIIKKY-NH2 [Peptide C16G2]” the “binding to S. mutans (in words)” value (S. mutans UA159 and comD) was “could specifically bind to S. mutans”, the MIC (S. gordonii) was 23.5 ± 7.8 µM and the “difference in susceptibility between G2 and C16G2” value (S. gordonii; MIC, S. gordonii) was at most 2 fold. For the same substance, the “S. mutans population within mixed-species biofilm (luciferase activity, RLU/OD600)” value [1] was “dramatically reduce the S. mutans population” and the “duration of selective inhibition of S. mutans growth within multi-species biofilm” value [1] was at least 2 h.

— US8680058B2, “Selectively targeted antimicrobial peptides and the use thereof” (priority 2006, dated 2014)
